Data on one compound can be found in patent publication US20050118310A1, “Formulations of compounds derived from natural sources and their use with irradiation for food preservation” (priority 2001, published 2005).

Marks after values point to notes of the source that are not given here.

One assay concerns E. coli. As to the kind of experiment: Effect of carvacrol concentration on survival of E. coli in ground beef irradiated at 0.25 kGy. To be noted: for Increase in Sensitivity: vs 0% carvacrol. Type of assay: cell-based, Escherichia coli (ATCC 25922). The text has this: (§1) The irradiation treatments of ground beef samples for D10 determination was done using UC-15B irradiator (MDS-Nordion International Inc., Kanata, ON, Canada) equipped with a ^60Co source at a dose rate of 14.42 kGy/h). Irradiation doses used for D10 determination were ranged from 0.1 to 0.6 kGy for E. coli and from 0.50 to 2.0 kGy for S. typhi. Under frozen condition, the irradiation doses ranged from 0.1 to 0.7 kGy for E. coli and from 0.5 to 3.0 kGy for S. typhi. For the determination of the effect of various concentrations of carvacrol on the irradiation sensitivity, samples were irradiated at 0.25 kGy for E. coli and at 0.5 kGy for S. typhi. Irradiation doses used for D10 determination in chicken breast ranged from 0.1 to 0.7 kGy for E. coli and from 0.25 to 2.0 kGy for S. typhi. Samples were analysed immediately after irradiation to determine the microbial count.
(§2) Samples were homogenised for 2 min in sterile peptone water (0.1%) using a Lab-blender 400 stomacher (Laboratory Equipment, London, UK). From this mixture, serial dilutions were prepared and appropriate ones were pour-plated in tryptic soy agar (TSA) (Difco, Laboratories, Detroit, Mich., USA) and incubated at 35° C., 24 hours for the numeration of E. coli and S. typhi.
(§3) The effect of various concentrations of carvacrol in irradiated ground beef was evaluated in order to determine if lower concentrations of carvacrol could also increase the irradiation sensitivity of E. coli and S. typhi in ground beef. For these experiments, sterile ground beef was contaminated with either E. coli or S. typhi to a final concentration of 10^5 CFU/g. Various concentrations of carvacrol ranging from 0 to 2.0% were added to the ground beef samples and transferred in portions of 25 g each to sterile petri plates (60×15 nmu) then stored at 4° C. until irradiation treatment (approximately 15 h).

The test system of a further assay is S. typhi. The assay is described as follows: Effect of carvacrol concentration on survival of S. typhi in ground beef irradiated at 0.5 kGy. The format is cell-based, Salmonella typhi (ATCC 19430). To be noted: ground beef irradiated at 0.50 kGy; for Increase in Sensitivity: vs 0% carvacrol.
From the text: as §1, §2, §3

For `Cc1ccc(C(C)C)cc1O` [Carvacrol, carvacrol], the “Log CFU/g” value in the assay on E. coli (carvacrol 0.2%) was 2.948 ± 0.088^b Log CFU/g; in the assay on E. coli (carvacrol 0.4%), 2.948 ± 0.068^b Log CFU/g; in the assay with E. coli (carvacrol 0.6%), 2.660 ± 0.037^c Log CFU/g; in the assay on E. coli (carvacrol 0.8%) it was 1.198 ± 0.065^d Log CFU/g; in the assay with E. coli (carvacrol 1.0%), 0.843 ± 0.000^e Log CFU/g; in the assay with E. coli (carvacrol […]), 0.000 ± 0.000^f Log CFU/g. Moreover, the “Log CFU/g” value is reported as 3.526 ± 0.061^b Log CFU/g with S. typhi (carvacrol 0.50%), 2.545 ± 0.112^d Log CFU/g with S. typhi (carvacrol 1.00%), 0.000 ± 0.000^g Log CFU/g with S. typhi (carvacrol 1.75%) and 0.000 ± 0.000^g Log CFU/g in the assay with S. typhi (carvacrol 2.00%). Also, the “Increase in Sensitivity” value is 4.8% with E. coli (carvacrol 0.2%); 4.8% in the assay on E. coli (carvacrol 0.4%); 14.1% in the assay on E. coli (carvacrol 0.6%); 61.3% with E. coli (carvacrol 0.8%); 72.8% in the assay with E. coli (carvacrol 1.0%); 100% in the assay on E. coli (carvacrol […]). The “Increase in Sensitivity” value is recorded as 15.4% in the assay with S. typhi (carvacrol 0.50%), 39.0% in the assay on S. typhi (carvacrol 1.00%), 100% in the assay on S. typhi (carvacrol 1.75%) and 100% in the assay with S. typhi (carvacrol 2.00%).
